According to patent US20090298708A1, “2'-DEOXY-2'-FLUORO-BETA-D-ARABINONUCLEOSIDE 5'-TRIPHOSPHATES AND THEIR USE IN ENZYMATIC NUCLEIC ACID SYNTHESIS” (priority 2006, published 2009):
Marks after values point to notes of the source that are not given here.

Legend:
[1] = target: T1, 9° Nm™ DNA polymerase (9N) (Thermococcus sp., UniProt Q56366, E143D); assay: Primer extension assay with 9°Nm DNA polymerase; assay type: biochemical, Thermococcus species (strain 9° N-7); design: key to Incorporation of three 2′F-araTTP / 2′F-araCTP (incorporation efficiency) / Enzymatic activity during primer extension reactions: ++++: excellent (no pausing observed); +++: very good (with slight pausing); ++: Good, full-length products with significant pausing; +: significant pausing, no full-length product but at least one 2′F-araN incorporation detected; conditions: for Incorporation of three 2′F-araTTP / 2′F-araCTP (incorporation efficiency): DNA template PF22 (2′F-araTTP) or PF24 (2′F-araCTP); for Order of efficiency of incorporation: DNA template PF22 (T/U triphosphates) or PF24 (C triphosphates), three contiguous units; for Enzymatic activity during primer extension reactions: plus dATP, dGTP; for full-length products generated: DNA template PF22, within 2 min, without pausing
T1 construct: purchased New England Biolabs; host or cells: E. coli
T1 sequence (Q56366 whole entry E143D): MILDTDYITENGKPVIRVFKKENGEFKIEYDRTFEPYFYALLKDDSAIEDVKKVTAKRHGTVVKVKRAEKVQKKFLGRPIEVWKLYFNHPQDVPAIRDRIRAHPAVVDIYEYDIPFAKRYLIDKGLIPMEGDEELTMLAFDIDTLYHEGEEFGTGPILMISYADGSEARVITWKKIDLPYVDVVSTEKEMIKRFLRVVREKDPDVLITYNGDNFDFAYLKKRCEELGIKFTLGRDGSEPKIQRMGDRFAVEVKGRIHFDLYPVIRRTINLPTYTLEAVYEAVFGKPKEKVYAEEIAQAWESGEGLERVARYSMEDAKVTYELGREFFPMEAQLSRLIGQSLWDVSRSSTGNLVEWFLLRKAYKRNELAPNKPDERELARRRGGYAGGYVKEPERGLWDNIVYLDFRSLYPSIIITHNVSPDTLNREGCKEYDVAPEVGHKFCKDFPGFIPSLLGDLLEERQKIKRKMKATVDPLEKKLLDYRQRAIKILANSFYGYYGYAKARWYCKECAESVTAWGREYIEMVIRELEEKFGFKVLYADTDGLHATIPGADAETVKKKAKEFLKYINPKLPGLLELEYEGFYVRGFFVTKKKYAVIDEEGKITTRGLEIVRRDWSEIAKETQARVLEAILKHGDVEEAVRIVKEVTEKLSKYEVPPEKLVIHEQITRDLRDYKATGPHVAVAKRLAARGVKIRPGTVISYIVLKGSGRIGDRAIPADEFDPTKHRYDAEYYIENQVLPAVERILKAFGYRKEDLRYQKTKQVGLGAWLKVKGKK
Method: Various different types of DNA polymerases were assessed, including the mesophilic enzyme Klenow fragment of DNA pol I (3′→5′ exo-) (“Kf”); the thermophilic DNA polymerases DV, 9N, Taq, Bst pol I, Th and Ph; and the viral reverse transcriptases HIV RT and MMLV. Kf is a genetically engineered proteolytic product of E. coli pol A gene that encodes DNA polymerase I which retains polymerase activity but has a mutation which abolishes the 3′->5′ and 5′->3′ exonuclease activities. DV is a genetically engineered DNA polymerase purified from a strain of E. coli that carries the DV DNA polymerase gene from Pyrococcus species GB-D. The gene has been engineered to eliminate 3′->5′ proofreading exonuclease activity. 9N is a genetically engineered DNA polymerase that has decreased 3′->5′ proofreading exonuclease activity. 9N is purified from a strain of E. coli that carries a modified 9° N DNA polymerase gene from Thermococcus species (strain 9° N-7). […] Taq polymerase is isolated from E. coli engineered to express Taq polymerase from Thermus aquaticus YT-1. Bst DNA polymerase (Large fragment) is a genetically engineered polymerase that consists of the portion of the Bacillus stearothemmophilus DNA polymerase protein responsible for 5′->3′ polymerase activity but lacks the 5′->3′ exonuclease domain. Th DNA polymerase is a genetically engineered, archaeon-derived DNA polymerase that is a variant of the 9N polymerase described above. The recombinant protein is isolated from E. coli engineered to express 9° NA485L (exo-) DNA polymerase gene, a genetic variant of the native DNA polymerase from Thermococcus species 9° N-7. Ph is a recombinant DNA polymerase that consists of a novel Pyrococcus-like enzyme fused with a double-strand DNA-binding and processivity-enhancing domain.
Primer extension assays were used to assess the incorporation of 2′F-araNTP on the various DNA templates (Table 1). The DNA primer (PF20) was first radioactively labeled at the 5′-hydroxyl terminus with a radioactive phosphorus probe and the enzyme T4 polynucleotide kinase (T4 PNK) (see Example 1 for General Methods). To assess the incorporation of 2′F-araNTPs, the primer and template were annealed, and the nucleoside 5′-triphosphates added in the presence of enzyme under the conditions specified in Table 2. Time points were obtained by analyzing small aliquots from the reaction mixture through polyacryamide gel electrophoresis (PAGE) and autoradiography.
Unless otherwise noticed in the Examples described below, the conditions used in the primer extension assays, such as dNTP concentration, reaction temperatures, concentration of Mg^2+, and reaction buffers (provided by the manufacturers, except for the HIV buffer which was prepared in-house) are shown in Table 2.
Primer extension assays were used to assess the incorporation of 2′F-araTTP on the DNA template (PF22). The DNA primer (PF20) was first radioactively labeled at the 5′-hydroxyl terminus with a radioactive phosphorus probe and the enzyme T4 polynucleotide kinase (T4 PNK) according to the manufacturer's specifications (MBI Fermentas Life Sciences, Burlington, ON). Incorporation of the ^32P label was accomplished in reaction mixtures consisting of DNA substrate (200 pmol), 2 μl loxreaction buffer (Buffer A for forward reaction: 500 mM Tris-HCl, pH 7.6 at 25° C., 100 mM MgCl2, 50 mM DTT, 1 mM spermidine and 1 mM EDTA), 1 μl T4 PNK enzyme solution (10 U/1 μl in a solution of 20 mM Tris-HCl, pH 7.5, 25 mM KCl, 0.1 mM EDTA, 2 mM DTT and 50% glycerol), 6 μl [γ-^32P]-ATP solution (6000 Ci/mmol, 10 mCi/ml; Amersham Biosciences, Inc.) and autoclaved sterile water to a final volume of 20 μl. The reaction mixture was incubated for about 45-60 min at 37° C., followed by a second incubation for 10 min at 95° C. to heat denature and deactivate the kinase enzyme.

[2] = tested on: DNA polymerases; assay: Primer extension assays, statement for all enzymes studied; assay type: biochemical; conditions: DNA template PF24; 9N, HIV, MMLV, DV
From the text: Primer extension assays were used to assess the incorporation of 2′F-araNTP on the various DNA templates (Table 1). […] To assess the incorporation of 2′F-araNTPs, the primer and template were annealed, and the nucleoside 5′-triphosphates added in the presence of enzyme under the conditions specified in Table 2. Time points were obtained by analyzing small aliquots from the reaction mixture through polyacryamide gel electrophoresis (PAGE) and autoradiography.
Primer extension assays were used to assess the incorporation efficiency of contiguous 2′F-ara(T/C)TPs compared to 2′F-r(U/C)TP on a DNA template (e.g. PF22 or PF24). To this end, a DNA template (e.g. PF22: FIGS. 15, 16, 17A, 18, 21A; PF24: FIGS. 17B, 19, 20, 21B), primer and the appropriate NTPs (e.g. combination of dATP/dCTP/dGTP/ and NTP, where N=dT, 2′F-araT, 2′F-rU, or rU (FIGS. 15, 16, 17A, 18, 21A); or combination of dATP/dGTP/dTTP/ and NTP, where N=dC, 2′F-araC, 2′F-rC, or rC (FIGS. 17B, 19, 20, 21B)), were incubated in the presence one of MMLV-RT, 9N, HIV or DV polymerase.
Mineral oil (20 μL) was used to prevent evaporation. The reaction mixture was incubated at either 37° C. (for KF) or 55° C. (for other polymerases) and different enzyme was added to initiate the primer extension reaction. Time points were obtained by small aliquots (4 μL or 8 μL) from the reaction mixture and quenching the aliquot with the same volume of a stopping dye solution (98% deionized formamide, 10 mM EDTA, 1 mg/ml bromophenol blue and 1 mg/ml xylene cyanol). The product pattern from each time point was analyzed by 12% denaturing polyacryamide gel electrophoresis (PAGE) and subsequent autoradiography.
The primer extension assays were used to assess the incorporation efficiency of three contiguous 2′F-ara(T/C)TP versus 2′F-r(U/C)TP on a DNA template (PF22 or PF24). To this end, template PF22 (FIGS. 15, 16, 17A, 18 and 21A) or template PF24 (FIGS. 17B, 19, 20 and 21B); primer PF20; and the appropriate NTPs: dATP/dGTP/dCTP/ and NTP, where N=dT, 2′F-araT, 2′F-rU, or rU; or dATP/dGTP/dTTP/ and NTP, where N=dC, 2′F-araC, 2′F-rC, or rC; were incubated in the presence HIV (FIGS. 18 and 20), DV (FIG. 21), MMLV-RT (FIGS. 15, 16, and 19) or 9N (FIG. 17) following the protocols and conditions described in Example 2 and Table 2.

Row | SMILES | Incorporation of three 2′F-araTTP / 2′F-araCTP (incorporation efficiency) ([1]; 37° C.) | Incorporation of three 2′F-araTTP / 2′F-araCTP (incorporation efficiency) ([1]; 55° C.) | Order of efficiency of incorporation ([1]; 55° C.) | Enzymatic activity during primer extension reactions ([1]; Example 3, DNA template PF24, 3x 2′F-araCTP, dTTP, 55° C.) | order of incorporation efficiency [2] | full-length products generated ([1]; 55° C.) | Enzymatic activity during primer extension reactions ([1]; Example 2, DNA template PF22, 3x 2′F-araTTP, dCTP, at 37° C.) | expected full-length product ([1]; DNA template PF22, after one hour, 55° C.)
1 | Nc1ccn([C@@H]2O[C@H](COP(=O)(O)OP(=O)(O)OP(=O)(O)O)[C@@H](O)[C@@H]2F)c(=O)n1 [2′F-araCTP, 1-(2-deoxy-2-fluoro-β-D-arabinofuranosyl)cytosine 5′-triphosphate] | None | ++++ | dCTP~2′F-araCTP~2′F-rCTP | +++ | dCTP=2′F-rCTP>2′F-araCTP >>rCTP | – | – | –
2 | Cc1cn([C@@H]2O[C@H](COP(=O)(O)OP(=O)(O)OP(=O)(O)O)[C@@H](O)[C@@H]2F)c(=O)[nH]c1=O [2′F-araTTP, 1-(2-deoxy-2-fluoro-β-D-arabino-furanosyl)thymine 5′-triphosphate] | ++++ | – | dTTP~2′F-araTTP > 2′F-rUTP | – | – | ca. 100% | +++^b | –
3 | Nc1ccn([C@@H]2O[C@H](COP(=O)(O)OP(=O)(O)OP(=O)(O)O)[C@@H](O)[C@H]2F)c(=O)n1 [2′F-rCTP, 1-(2-deoxy-2-fluoro-β-D-ribofuranosyl) cytosine 5′-triphosphate, reference compound] | – | – | dCTP~2′F-araCTP~2′F-rCTP | – | dCTP=2′F-rCTP>2′F-araCTP >>rCTP | – | – | –
4 | O=c1ccn([C@@H]2O[C@H](COP(=O)(O)OP(=O)(O)OP(=O)(O)O)[C@@H](O)[C@H]2F)c(=O)[nH]1 [2′F-rUTP, 1-(2-deoxy-2-fluoro-β-D-ribo-furanosyl)uracil 5′-triphosphate, reference compound] | – | – | dTTP~2′F-araTTP > 2′F-rUTP | – | – | – | – | ca. 20%
5 | Nc1ccn([C@H]2C[C@H](O)[C@@H](COP(=O)(O)OP(=O)(O)OP(=O)(O)O)O2)c(=O)n1 [dCTP] | – | – | dCTP~2′F-araCTP~2′F-rCTP | – | dCTP=2′F-rCTP>2′F-araCTP >>rCTP | – | – | –
6 | Cc1cn([C@H]2C[C@H](O)[C@@H](COP(=O)(O)OP(=O)(O)OP(=O)(O)O)O2)c(=O)[nH]c1=O [dTTP, reference compound] | – | – | dTTP~2′F-araTTP > 2′F-rUTP | – | – | ca. 100% | – | –
